# Experimental data taken from patent publication US10626144B2, “Peptide derivatives and uses thereof” (Nosopharm, priority 2014, dated 2020).
# Square brackets hold non-standard residues; d marks the D form. Peptide text beside a SMILES is read from it. Phe(3,5-F2) = N[C@@H](Cc1cc(F)cc(F)c1)C(=O)O; Dab(3S-OH) = NC[C@H](O)[C@H](N)C(=O)O; Phe(2-F) = N[C@@H](Cc1ccccc1F)C(=O)O; ΔZArg = N=C(N)NCC/C=C(\N)C(=O)O; NMeK = CN[C@@H](CCCCN)C(=O)O; dOrn = NCCC[C@@H](N)C(=O)O; Pip = O=C(O)[C@@H]1CCCCN1
# Columns and labels:
# Assay in all cases: MIC, broth microdilution (CLSI), reference strain
# Settings in all cases: CAMHB
# [1] = tested on: Staphylococcus aureus ATCC 13709
# [2] = tested on: Escherichia coli ATCC 25922
# [3] = tested on: Acinetobacter baumannii ATCC 19606
# [4] = tested on: Pseudomonas aeruginosa ATCC 27853
SMILES,Sa: MIC Staphylococcus aureus ATCC 13709 [1],Ec: MIC Escherichia coli ATCC 25922 [2],Ab: MIC Acinetobacter baumannii ATCC 19606 [3],Pa: MIC Pseudomonas aeruginosa ATCC 27853 [4]
C[C@H](NC(=O)/C(=C/CCNC(=N)N)NC(=O)[C@H](CCCCN)NC(=O)[C@H](Cc1cnc[nH]1)NC(=O)[C@@H]1CCCN1C(=O)[C@@H](CCCN)NC(=O)CNC(=O)[C@@H](NC(=O)[C@@H](NC(=O)[C@@H](N)CCCCN)[C@@H](O)CN)[C@@H](O)CN)C(N)=O [22.14] (H-K[Dab(3S-OH)][Dab(3S-OH)]G[dOrn]PHK[ΔZArg]A-NH2),++ (≤8 μg/mL),++ (≤8 μg/mL),− (>32 μg/mL),− (>32 μg/mL)
COc1ccc(C[C@H](NC(=O)[C@@H]2CCCN2C(=O)[C@@H](CCCN)NC(=O)CNC(=O)[C@@H](NC(=O)[C@@H](NC(=O)[C@@H](N)CCCCN)[C@@H](O)CN)[C@@H](O)CN)C(=O)N[C@@H](CCCCN)C(=O)N/C(=C\CCNC(=N)N)C(=O)O)cc1 [22.39] (H-K[Dab(3S-OH)][Dab(3S-OH)]G[dOrn]PY(Me)K[ΔZArg]-OH),++ (≤8 μg/mL),+ (≤32 μg/mL),− (>32 μg/mL),− (>32 μg/mL)
N=C(N)NCC/C=C(\NC(=O)[C@H](CCCCN)NC(=O)[C@H](Cc1ccccc1F)NC(=O)[C@@H]1CCCN1C(=O)[C@@H](CCCN)NC(=O)CNC(=O)[C@@H](NC(=O)[C@@H](NC(=O)[C@@H](N)CCCCN)[C@@H](O)CN)[C@@H](O)CN)C(=O)O [22.33] (H-K[Dab(3S-OH)][Dab(3S-OH)]G[dOrn]P[Phe(2-F)]K[ΔZArg]-OH),++ (≤8 μg/mL),++ (≤8 μg/mL),− (>32 μg/mL),− (>32 μg/mL)

# Now from value to compound:
Sa: MIC Staphylococcus aureus ATCC 13709 [1],Ec: MIC Escherichia coli ATCC 25922 [2],Ab: MIC Acinetobacter baumannii ATCC 19606 [3],Pa: MIC Pseudomonas aeruginosa ATCC 27853 [4],SMILES
+ (≤32 μg/mL),+ (≤32 μg/mL),− (>32 μg/mL),− (>32 μg/mL),C[C@H](NC(=O)[C@@H](NC(=O)[C@@H](N)CCCCN)[C@@H](O)CN)C(=O)NCC(=O)N[C@H](CCCN)C(=O)N1CCCC[C@H]1C(=O)N[C@@H](Cc1cnc[nH]1)C(=O)N[C@@H](CCCCN)C(=O)N/C(=C\CCNC(=N)N)C(=O)O [24.74] (H-K[Dab(3S-OH)]AG[dOrn][Pip]HK[ΔZArg]-OH)
++ (≤8 μg/mL),+ (≤32 μg/mL),− (>32 μg/mL),− (>32 μg/mL),N=C(N)NCC/C=C(\NC(=O)[C@H](CCCCN)NC(=O)[C@H](Cc1cnc[nH]1)NC(=O)[C@@H]1CCCN1C(=O)[C@@H](CCCN)NC(=O)CNC(=O)[C@H](Cc1cnc[nH]1)NC(=O)[C@@H](NC(=O)[C@@H](N)CCCCN)[C@@H](O)CN)C(N)=O [214.1] (H-K[Dab(3S-OH)]HG[dOrn]PHK[ΔZArg]-NH2)
++ (≤8 μg/mL),+ (≤32 μg/mL),− (>32 μg/mL),− (>32 μg/mL),"C[C@H](NC(=O)[C@@H](NC(=O)[C@@H](N)CCCCN)[C@@H](O)CN)C(=O)NCC(=O)N[C@H](CCCN)C(=O)N1CCC[C@H]1C(=O)N[C@@H](Cc1cc(F)cc(F)c1)C(=O)N[C@@H](CCCCN)C(=O)N/C(=C\CCNC(=N)N)C(=O)O [24.86] (H-K[Dab(3S-OH)]AG[dOrn]P[Phe(3,5-F2)]K[ΔZArg]-OH)"
++ (≤8 μg/mL),++ (≤8 μg/mL),− (>32 μg/mL),− (>32 μg/mL),CN[C@@H](CCCCN)C(=O)N[C@H](C(=O)N[C@@H](C)C(=O)NCC(=O)N[C@H](CCCN)C(=O)N1CCC[C@H]1C(=O)N[C@@H](Cc1cnc[nH]1)C(=O)N[C@@H](CCCCN)C(=O)N/C(=C\CCNC(=N)N)C(N)=O)[C@@H](O)CN [24.63] (H-[NMeK][Dab(3S-OH)]AG[dOrn]PHK[ΔZArg]-NH2)
